The data set can be described thus: Solubility of the catalyst. Type of data set: physicochemical. As to conditions: ambient temperature (25° C.).

For `CC(C)C/C(=C/C(=O)C(C)(C)C)[O][Zn][O]/C(=C\C(=O)C(C)(C)C)CC(C)C` [Catalyst (6), zinc bis(2,2,7-trimethyl-3,5-octanedionate)], the solubility result was “soluble in organic solvents, even in alkanes, and in silicone oils”.

The record behind these values is patent US20110305911A1, “ARTICLE HAVING ANTIFOULING PROPERTIES AND INTENDED TO BE USED IN AQUATIC APPLICATIONS, PARTICULARLY MARINE APPLICATIONS” (BLUESTAR SILICONES FRANCE, priority 2008, published 2011).
